Where two headings read alike, the source gives them in different places.
Legend:
[1] = system: writhing syndrome induced by phenylquinone in mice; test: Analgesic test (phenylquinone writhing, anti-PQW); format: in vivo, mouse (female white mice); conditions: mouse; oral; phenylquinone i.p.; read-out: EFFECT ED50 Anti-PQW (Oral)
Experimental: A standard procedure for detecting and comparing the analgesic activity of compounds in this series for which there is good correlation with human efficacy is the standard phenylquinone writhing test modified from Siegmund, et al., Proc. Soc. Exp. Biol. Med., 95, 729 (1957). A test compound suspended in 1% Methocel® was given orally to fasted (17-21 hours) female white mice, 5-20 animals per double blind test. Aqueous phenylquinone (0.1% phenyl-p-benzoquinone) was injected intraperitoneally at 24 minutes later using 0.20 ml per mouse. […] The effective analgesic dose for 50% of the mice (ED50) was calculated by the moving average method of Thompson, W. R., Bact. Rev., 11, 115-145 (1947).

[2] = system: Straub tail induced by morphine sulfate in mice; test: Narcotic antagonist test (mouse anti-Straub tail test against morphine); format: in vivo, mouse (female CF1 S); conditions: vs 30 mg/kg morphine sulfate i.p.
Experimental: This property is the basis of a mouse test for narcotic antagonists.
Female CF1 S mice (fasted 17-21 hrs.), 5 per dose, were injected orally or subcutaneously with test drug at 0.67, 2, 6, 18, 54 and 162 mg/kg or other appropriate doses in 0.20 ml 1% Methocel® per mouse. Five minutes later, 30 mg/kg of morphine sulfate in 0.20 ml 1% Methocel® per mouse was given intraperitoneally. Starting ten minutes later, the mice were observed continuously for 5 minutes for evidence of Straub tail. Prevention of Straub tail during this observation period was taken as indication of narcotic antagonist ability.

[3] = system: Straub tail reaction in mice; test: Narcotic test (Straub tail reaction); format: in vivo, mouse (CF1 S female); conditions: 0.4 h, read-out: EFFECT ED50 Straub-tail (Oral)
Experimental: Narcotic analgesics which have only agonist activity produce in mice an erection and arching of the tail (90° or more) which is referable to spinal cord stimulation. This Straub tail reaction is not produced by other analgesics, including the narcotic antagonists.
The method used was modified from Shemano, I., and Wendel, H., Tox. Appl. Pharm., 6, 334-9 (1964). CF1 S female mice (18-21 g), 10-20 mice per dose, were […] with log scaled doses of analgesic in 1% aqueous methylcellulose. A positive Straub tail response was recorded if a tail was erected 90° or more for 5 seconds at any time within 24 minutes after dosing. A quantal Straub tail ED50 was calculated by the moving average method [Thompson, W. R., Bact. Rev., 11, 115-145 (1947)].

[4] = system: Straub tail induced by morphine in mice; conditions: mouse; cited from earlier work
[5] = chronic oral therapy; cited from earlier work
[6] = sc, read-out: EFFECT ED50 Anti-Straub Tail (s.c.)
[7] = mouse, oral, within 24 minutes after dosing

Structure (SMILES)	ED50 [1]	ED50 [2, 6]	ED50 [3, 7]	ED50 ([3]; Mus musculus, po)	ED50 ([2]; oral, read-out: EFFECT ED50 Anti-Straub Tail (Oral))	prevention of Straub tail induced by morphine [4]	abstinence of opiate addicts [5]
COc1ccc2c3c1O[C@H]1C4(CCC5(F)C(C2)N(CC2CC2)CCC315)OCCO4 (stereo partly shown) [Example 1]	42 mg/kg	1.7 mg/kg	> 135 mg/kg	–	–	–	–
COc1ccc2c3c1OC1C(=O)CC[C@@]4(F)[C@@H](C2)N(CC2CC2)CC[C@]314 (stereo partly shown) [Example 2, 17-(Cyclopropylmethyl)-4,5-epoxy-14-fluoro-3-methoxymorphinan-6-one]	> 135 mg/kg	0.33 mg/kg	–	> 135 mg/kg	–	–	–
O=C1CC[C@@]2(F)[C@H]3Cc4ccc(O)c5c4[C@@]2(CCN3CC2CC2)C1O5 (stereo partly shown) [Example 3, 17-(Cyclopropylmethyl)-4,5-epoxy-14-fluoro-3-hydroxymorphinan-6-one]	> 135 mg/kg	0.01 mg/kg	–	> 135 mg/kg	0.09 mg/kg	–	–
Oc1ccc2c3c1O[C@H]1[C@@H](O)CCC4(F)C(C2)N(CC2CCC2)CCC314 (stereo partly drawn) [Example 6, 17-(Cyclobutylmethyl)-4,5-epoxy-14-fluoro-morphinan-3,6-diol (α-isomer)]	30.4 mg/kg	0.41 mg/kg	> 135 mg/kg	–	–	–	–
CN1CC[C@]23c4c5ccc(O)c4OC2C(=O)CC[C@@]3(F)[C@H]1C5 (stereo partly shown) [Example 7, 17-Methyl-14-fluoro-3-hydroxy-4,5-epoxymorphinan-6-one]	2.4 mg/kg	> 81 mg/kg	–	18.7 mg/kg	–	–	–
COc1ccc2c3c1O[C@H]1C4(CCC5(F)C(C2)N(CC2CCC2)CCC315)OCCO4 (stereo partly shown) [Example 8]	11.1 mg/kg	> 135 mg/kg	> 135 mg/kg	–	–	–	–
COc1ccc2c3c1O[C@H]1C(=O)CCC4(F)C(C2)N(CC2CCC2)CCC314 (stereo partly shown) [Example 9]	27.6 mg/kg	6 mg/kg	> 135 mg/kg	–	–	–	–
COc1ccc2c3c1O[C@H]1C4(CCC5(F)C(C2)N(C)CCC315)OCCO4 (stereo partly shown) [Example 10]	5 mg/kg	> 135 mg/kg	> 135 mg/kg	–	–	–	–
COc1ccc2c3c1O[C@H]1C(=O)CCC4(F)C(C2)N(C)CCC314 (stereo partly shown) [Example 11]	6.3 mg/kg	> 135 mg/kg	45 mg/kg	–	–	–	–
C=CCN1CC[C@]23c4c5ccc(O)c4O[C@H]2C(=O)CC[C@@]3(O)[C@H]1C5 [Naloxone]	–	–	–	–	–	prevent the induction of Straub tail	–
C=CCN1CC[C@]23c4c5ccc(O)c4O[C@H]2[C@@H](O)C=C[C@H]3[C@H]1C5 [nalorphine]	–	–	–	–	–	prevent the induction of Straub tail	–
O=C1CC[C@@]2(O)[C@H]3Cc4ccc(O)c5c4[C@@]2(CCN3CC2CC2)[C@H]1O5 [naltrexone]	–	–	–	–	–	–	remain abstinent

Source: US4451470A, “Analgesic, antagonist, and/or anorectic 14-fluoromorphinans” (E. I. Du Pont de Nemours and Company, priority 1982, dated 1984)
